Publication PMC3141655 (BMC Biochemistry, 2011)
Where two headings read alike, the source gives them in different places.

How the values were obtained:
[1] = biological target: T1, StOASS (O-acetylserine sulfhydrylase) (Salmonella typhimurium, UniProt P0A1E3); assay: PLP fluorescence titration of ligands with StOASS; type: binding; design: His tag (N); made in house; host or cells: E. coli BL21(DE3), pET28a(+)
Procedure: Titrations of ligands with StOASS were examined by monitoring changes in the active site pyridoxal 5'phosphate (PLP) fluorescence of OASS using a Varian spectrofluorometer. The excitation and emission wavelengths for monitoring PLP signal change upon ligand binding were 412 nm and 507 nm respectively. All experiments were done at 23.0 ± 1°C. Slit widths were set to 5 nm for all experiments and PMT voltage was adjusted to get maximum signal for a given protein concentration. Initial readings of both the sample, Fsamp,0 and buffer, Fbuf,0 were taken, with F0 = Fsamp,0-Fbuf,0 defined as the initial fluorescence of the sample. The sample cuvette was then titrated with aliquots of ligands and mixed, equilibrated for 2-5 minutes before measurement. Data points from five such measurements were averaged to obtain Fave,i. The relative fluorescence quenching upon ligand binding is defined as Qobs,i = (F0-Fobs,i)/F0. All measurements were corrected for dilution, and inner filter effects.
Binding of ligands to OASS was analyzed to obtain the equilibrium binding constant, Kobs = [PL]/[P]*[L], using a single or two independent site binding models (eqn 1)(1) [drawing 1]
Where n, number of binding sites, Qobs, observed fluorescence quenching and Qmax, the maximum fluorescence quenching at saturation.

[2] = biological target: T1, StOASS (O-acetylserine sulfhydrylase)
Procedure: (§1) Isothermal titration calorimetry (ITC) experiments were performed using a Nano-ITC (TA-Instruments). OASS was dialyzed at 25°C in 20 mM Tris buffer (pH 8.0) and 50 mM NaCl. Buffer solutions were degassed at room temperature prior to use. […] The heat of dilution for each injection was determined using buffer in the cell. Data obtained from the titration of ligands with OASS were analyzed using either a two-sites binding model (eqn 2)(2) [drawing 2]
(§2) Qi^tot is total heat after the i^th injection, V0 is the volume of calorimetric cell, K1 and K2 are the observed equilibrium constants for each site, and ΔH1 and ΔH2 are the corresponding enthalpy changes. Estimates of Kobs and ΔH were obtained by fitting the experimental data to the model and the best-fit parameters were selected based on the lowest Chi-squared values.

[3] = biological target: T2, HiOASS (O-acetylserine sulfhydrylase) (Haemophilus influenzae, UniProt P45040); assay: PLP fluorescence titration of ligands with HiOASS; type: binding; design: His tag (N); made in house; host or cells: E. coli BL21(DE3), pET28a(+); details: 20 mM Tris pH 8.0
T2 sequence (P45040 whole entry): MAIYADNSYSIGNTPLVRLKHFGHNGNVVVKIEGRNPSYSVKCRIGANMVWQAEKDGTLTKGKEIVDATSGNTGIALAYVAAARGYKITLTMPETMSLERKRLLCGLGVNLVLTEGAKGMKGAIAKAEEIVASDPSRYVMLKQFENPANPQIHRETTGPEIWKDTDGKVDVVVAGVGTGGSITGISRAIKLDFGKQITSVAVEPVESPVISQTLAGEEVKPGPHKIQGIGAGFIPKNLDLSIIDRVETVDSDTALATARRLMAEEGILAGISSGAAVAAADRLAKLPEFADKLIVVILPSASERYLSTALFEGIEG

[4] = biological target: T2, HiOASS (O-acetylserine sulfhydrylase); details: for TdS / ΔG / ΔH: 20 mM Tris pH 8.0, 50 mM NaCl
Procedure: as §1, §2

[5] = [NaCl] 0.02 M, 20 mM Tris pH 8.0
[6] = [NaCl] 0.05 M, 20 mM Tris pH 8.0
[7] = [NaCl] 0.1 M, 20 mM Tris pH 8.0
[8] = [NaCl] 0.2 M, 20 mM Tris pH 8.0
[9] = [NaCl] 0.5 M, 20 mM Tris pH 8.0
[10] = 10°C, 20 mM Tris pH 8.0, 50 mM NaCl
[11] = 15°C, 20 mM Tris pH 8.0, 50 mM NaCl
[12] = 20°C, 20 mM Tris pH 8.0, 50 mM NaCl
[13] = 25°C, 20 mM Tris pH 8.0, 50 mM NaCl
[14] = 30°C, 20 mM Tris pH 8.0, 50 mM NaCl
[15] = 35°C, 20 mM Tris pH 8.0, 50 mM NaCl
[16] = from dependence of enthalpy on temperature

T1 sequence (P0A1E3 whole entry): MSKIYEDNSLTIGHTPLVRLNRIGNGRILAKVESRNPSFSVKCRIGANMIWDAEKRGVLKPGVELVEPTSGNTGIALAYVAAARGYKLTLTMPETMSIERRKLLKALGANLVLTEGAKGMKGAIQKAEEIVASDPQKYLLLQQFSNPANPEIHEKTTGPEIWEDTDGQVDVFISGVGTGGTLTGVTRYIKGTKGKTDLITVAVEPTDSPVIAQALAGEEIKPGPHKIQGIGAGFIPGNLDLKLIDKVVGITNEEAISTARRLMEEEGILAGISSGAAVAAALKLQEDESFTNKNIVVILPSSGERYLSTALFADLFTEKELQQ

Q: How did the “dlogK/dlog [NaCl]” value ([1]; [NaCl] 0.02-0.5 M) turn out when `N[C@@H](CS)C(=O)O` [Cysteine, L-cysteine] was run?
A: ~ -0.21 ± 0.1

Q: And the “N (number of binding sites)” value [1, 5]?
A: 2

Q: What about the “Qmax (maximum fluorescence quenching at saturation)” value [1, 5] of the same compound?
A: 3.8

Q: And the ΔG [1, 5]?
A: -15.0 ± 0.1 kJ/mol

Q: And the Kobs ([1]; [NaCl] 0.02 M, 20 mM Tris pH 8.0, similar for each of two sites)?
A: 6.0 ± 0.1 × 10^2 M^-1

Q: What about the Kobs ([1]; [NaCl] 0.02 M, 20 mM Tris pH 8.0, similar for each of two sites, listed as cysteine) of the same compound?
A: 600 M⁻¹

Q: And the Kobs [1, 6]?
A: 5.6 ± 0.1 × 10^2 M^-1

Q: What about the “N (number of binding sites)” value [1, 6] of the same compound?
A: 2

Q: And the Qmax [1, 6]?
A: 4.6

Q: What about the ΔG [1, 6] of the same compound?
A: -14.9 ± 0.1 kJ/mol

Q: And the Kobs [1, 7]?
A: 4.5 ± 0.1 × 10^2 M^-1

Q: And the “N (number of binding sites)” value [1, 7]?
A: 2

Q: And the Qmax [1, 7]?
A: 4.6

Q: What about the ΔG [1, 7] of the same compound?
A: -14.3 ± 0.1 kJ/mol

Q: And the Kobs [1, 8]?
A: 3.7 ± 0.1 × 10^2 M^-1

Q: And the “N (number of binding sites)” value [1, 8]?
A: 2

Q: And the Qmax [1, 8]?
A: 4.5

Q: What about the ΔG [1, 8] of the same compound?
A: -13.9 ± 0.1 kJ/mol

Q: And the Kobs [1, 9]?
A: 2.6 ± 0.1 × 10^2 M^-1

Q: What about the “N (number of binding sites)” value [1, 9] of the same compound?
A: 2

Q: And the Qmax [1, 9]?
A: 4.7

Q: And the ΔG [1, 9]?
A: -13.0 ± 0.1 kJ/mol

Q: What about the Kd ([1]; from K1,obs and K2,obs of the PLP fluorescence titration, read-out: Kd) of the same compound?
A: ~1.7 mM

Q: And the TdS [2, 10]?
A: 6.9 kJ/mol

Q: And the ΔH [2, 10]?
A: -2.7 ± 0.1 kJ/mol

Q: What about the ΔG ([2]; 10°C, 20 mM Tris pH 8.0, 50 mM NaCl, two independent sites model) of the same compound?
A: -9.6 ± 0.4 kJ/mol

Q: What about the TdS [2, 11] of the same compound?
A: 6.8 kJ/mol

Q: What about the ΔG [2, 11] of the same compound?
A: -9.6 ± 0.3 kJ/mol

Q: What about the ΔH [2, 11] of the same compound?
A: -2.8 ± 0.1 kJ/mol

Q: What about the TΔS ([2]; 20°C) of the same compound?
A: 3.4 kJ/M

Q: What about the ΔH ([2]; 20°C) of the same compound?
A: -6.4 ± 0.1 kJ/M

Q: And the TdS [2, 12]?
A: 3.4 kJ/mol

Q: And the ΔG [2, 12]?
A: -9.8 ± 0.1 kJ/mol

Q: What about the ΔH [2, 12] of the same compound?
A: -6.4 ± 0.1 kJ/mol

Q: What about the TdS [2, 13] of the same compound?
A: 4.7 kJ/mol

Q: What about the ΔG [2, 13] of the same compound?
A: -10.6 ± 0.1 kJ/mol

Q: What about the ΔH [2, 13] of the same compound?
A: -5.9 ± 0.1 kJ/mol

Q: What about the TdS [2, 14] of the same compound?
A: 5.8 kJ/mol

Q: And the ΔG [2, 14]?
A: -10.2 ± 0.2 kJ/mol

Q: What about the ΔH [2, 14] of the same compound?
A: -4.4 ± 0.2 kJ/mol

Q: What about the TdS [2, 15] of the same compound?
A: 5.6 kJ/mol

Q: And the ΔG [2, 15]?
A: -11.0 ± 0.2 kJ/mol

Q: And the ΔH [2, 15]?
A: -5.4 ± 0.3 kJ/mol

Q: What about the “net heat capacity change ΔCp” value [2, 16] of the same compound?
A: -130 JK^-1M^-1

Q: And the Kobs ([3]; [NaCl] 0.02 M)?
A: 6.6 ± 0.1 × 10^2 M^-1

Q: And the “N (number of binding sites)” value ([3]; [NaCl] 0.02 M)?
A: 2

Q: And the Qmax ([3]; [NaCl] 0.02 M)?
A: 3.9

Q: And the ΔG ([3]; [NaCl] 0.02 M)?
A: -15.2 ± 0.1 kJ/mol

Q: What about the Kobs ([3]; [NaCl] 0.05 M) of the same compound?
A: 5.6 ± 0.1 × 10^2 M^-1

Q: And the “N (number of binding sites)” value ([3]; [NaCl] 0.05 M)?
A: 2

Q: What about the Qmax ([3]; [NaCl] 0.05 M) of the same compound?
A: 5.7

Q: What about the Kobs ([3]; [NaCl] 0.1 M) of the same compound?
A: 4.5 ± 0.1 × 10^1 M^-1

Q: And the “N (number of binding sites)” value ([3]; [NaCl] 0.1 M)?
A: 2

Q: What about the Qmax ([3]; [NaCl] 0.1 M) of the same compound?
A: 5.8

Q: What about the ΔG ([3]; [NaCl] 0.1 M) of the same compound?
A: -9.0 ± 0.1 kJ/mol

Q: What about the Kobs ([3]; [NaCl] 0.2 M) of the same compound?
A: 3.1 ± 0.1 × 10^1 M^-1

Q: What about the “N (number of binding sites)” value ([3]; [NaCl] 0.2 M) of the same compound?
A: 2

Q: And the Qmax ([3]; [NaCl] 0.2 M)?
A: 5.8

Q: And the ΔG ([3]; [NaCl] 0.2 M)?
A: -8.0 ± 0.1 kJ/mol

Q: What about the Kobs ([3]; [NaCl] 0.5 M) of the same compound?
A: 3.2 ± 0.1 × 10^1 M^-1

Q: What about the “N (number of binding sites)” value ([3]; [NaCl] 0.5 M) of the same compound?
A: 2

Q: What about the Qmax ([3]; [NaCl] 0.5 M) of the same compound?
A: 3.1

Q: And the ΔG ([3]; [NaCl] 0.5 M)?
A: -8.0 ± 0.1 kJ/mol

Q: And the TdS ([4]; 10°C)?
A: 3.7 kJ/mol

Q: And the ΔG ([4]; 10°C)?
A: -8.3 ± 0.4 kJ/mol

Q: What about the ΔH ([4]; 10°C) of the same compound?
A: -4.6 ± 0.1 kJ/mol

Q: And the TdS ([4]; 15°C)?
A: 4.1 kJ/mol

Q: What about the ΔG ([4]; 15°C) of the same compound?
A: -8.7 ± 0.2 kJ/mol

Q: And the ΔH ([4]; 15°C)?
A: -4.6 ± 0.2 kJ/mol

Q: And the TdS ([4]; 20°C)?
A: 5.1 kJ/mol

Q: What about the ΔG ([4]; 20°C) of the same compound?
A: -9.5 ± 0.5 kJ/mol

Q: What about the ΔH ([4]; 20°C) of the same compound?
A: -4.4 ± 0.2 kJ/mol

Q: And the TdS ([4]; 25°C)?
A: 4.1 kJ/mol

Q: What about the ΔG ([4]; 25°C) of the same compound?
A: -9.5 ± 0.5 kJ/mol

Q: And the ΔH ([4]; 25°C)?
A: -5.4 ± 0.3 kJ/mol

Q: And the TdS ([4]; 30°C)?
A: 6.5 kJ/mol

Q: And the ΔG ([4]; 30°C)?
A: -11.0 ± 0.3 kJ/mol

Q: And the ΔH ([4]; 30°C)?
A: -4.5 ± 0.4 kJ/mol

Q: And the “heat capacity change ΔCp” value [4, 16]?
A: -12 JK^-1M^-1

Q: How did the “binding to OASS when presented as amino acid” value ([1]; similar experimental conditions as cysteine/methionine titrations) turn out when `CC[C@H](C)[C@H](N)C(=O)O` [isoleucine, L-isoleucine] was run?
A: does not bind OASS
